Species on record: Rattus norvegicus
Assay: Open TG-GATES - Regimen: Daily Repeat
Format: toxicity, organism-based, Sprague-Dawley
Parameters: regimen Daily Repeat, gender Male, age 6 weeks
Settings: in vivo, po, […], route diet; for KIDNEY_TOTAL / KIDNEY_L / KIDNEY_R: tissue Kidney; for LIVER: tissue Liver; for A/G / ALP / ALT / AST / BUN / CRE / Ca / Cl / DBIL / GLC / IP / K / LDH / Na / PL / RALB / TBIL / TC / TG / TP / gamma-GTP: tissue Plasma
[1] = dose 0 %, dose level Control, time 28 day
[2] = dose 9999 %, dose level High, time 7 day
[3] = dose 9999 %, dose level High, time 14 day
[4] = dose 9999 %, dose level High, time 28 day
[5] = dose 0 %, dose level Control, time 7 day
[6] = dose 0 %, dose level Control, time 14 day

## CC(C)CCC[C@@H](C)[C@H]1CC[C@H]2[C@@H]3CC=C4C[C@@H](O)CC[C@]4(C)[C@H]3CC[C@]12C.C[C@H](CCC(=O)[O-])[C@H]1CC[C@@H]2[C@]1(C)[C@@H](O)C[C@@H]1[C@@]3(C)CC[C@@H](O)C[C@H]3C[C@@H](O)[C@@]21C.[Na+] [cholesterol + sodium cholate]
[1]
  KIDNEY_TOTAL: 2.8 g
  LIVER: 17.9 g
  A/G: 0.8
  ALP: 1365 IU/L
  ALT: 31.4 IU/L
  AST: 56.2 IU/L
  BUN: 17.7 mg/dL
  CRE: 0.2 mg/dL
  Ca: 10.3 mg/dL
  Cl: 103.3 meq/L
  DBIL: 0.006 mg/dL
  GLC: 210.8 mg/dL
  IP: 6.4 mg/dL
  K: 4.2 meq/L
  LDH: 103.6 IU/L
  Na: 139 meq/L
  PL: 143.8 mg/dL
  RALB: 2.8 g/dL
  TBIL: 0 mg/dL
  TC: 68.2 mg/dL
  TG: 180.9 mg/dL
  TP: 6 g/dL
  gamma-GTP: 0.9 IU/L
[2]
  KIDNEY_L: 1.2 g
  KIDNEY_R: 1.2 g
  KIDNEY_TOTAL: 2.4 g
  LIVER: 16.3 g
  A/G: 0.9
  ALP: 1845.8 IU/L
  ALT: 43.4 IU/L
  AST: 79.8 IU/L
  BUN: 18.6 mg/dL
  Ca: 10.7 mg/dL
  Cl: 103.2 meq/L
  GLC: 190 mg/dL
  IP: 7.6 mg/dL
  K: 4.5 meq/L
  LDH: 179.4 IU/L
  Na: 140.8 meq/L
  PL: 174 mg/dL
  RALB: 3 g/dL
  TC: 181 mg/dL
  TG: 141.6 mg/dL
  TP: 6.2 g/dL
  gamma-GTP: 1.1 IU/L
[3]
  KIDNEY_L: 1.3 g
  KIDNEY_R: 1.4 g
  KIDNEY_TOTAL: 2.6 g
  LIVER: 18.6 g
  A/G: 0.8
  ALP: 1718.2 IU/L
  ALT: 35.4 IU/L
  AST: 68 IU/L
  BUN: 18.4 mg/dL
  Ca: 10.8 mg/dL
  Cl: 101.7 meq/L
  DBIL: 0 mg/dL
  GLC: 200.2 mg/dL
  IP: 6.7 mg/dL
  K: 4.2 meq/L
  LDH: 181.2 IU/L
  Na: 141.2 meq/L
  PL: 142.8 mg/dL
  TC: 158.2 mg/dL
  TG: 121.9 mg/dL
  TP: 6.5 g/dL
  gamma-GTP: 1.1 IU/L
[4]
  KIDNEY_L: 1.6 g
  KIDNEY_R: 1.6 g
  KIDNEY_TOTAL: 3.2 g
  LIVER: 24.7 g
  ALP: 1155 IU/L
  ALT: 34.6 IU/L
  AST: 62.8 IU/L
  BUN: 16.6 mg/dL
  Ca: 10.7 mg/dL
  Cl: 100.9 meq/L
  DBIL: 0 mg/dL
  GLC: 194 mg/dL
  IP: 6.5 mg/dL
  K: 3.9 meq/L
  LDH: 135 IU/L
  Na: 140.2 meq/L
  PL: 146.2 mg/dL
  RALB: 3 g/dL
  TC: 147.6 mg/dL
  TG: 120.2 mg/dL
  TP: 6.8 g/dL
[5]
  LIVER: 12.4 g
  A/G: 1
  ALP: 1589.8 IU/L
  ALT: 34 IU/L
  AST: 67.4 IU/L
  BUN: 19.6 mg/dL
  CRE: 0.2 mg/dL
  Ca: 10.4 mg/dL
  Cl: 105.2 meq/L
  DBIL: 0 mg/dL
  GLC: 193.4 mg/dL
  IP: 7.3 mg/dL
  K: 4.4 meq/L
  LDH: 160.6 IU/L
  Na: 141.5 meq/L
  PL: 154.8 mg/dL
  RALB: 2.8 g/dL
  TBIL: 0 mg/dL
  TC: 75.4 mg/dL
  TG: 124.4 mg/dL
  TP: 5.7 g/dL
  gamma-GTP: 0.9 IU/L
[6]
  LIVER: 13.6 g
  A/G: 1
  ALP: 1612.2 IU/L
  ALT: 38.4 IU/L
  AST: 79.8 IU/L
  BUN: 18.5 mg/dL
  CRE: 0.2 mg/dL
  Ca: 10.5 mg/dL
  Cl: 103.4 meq/L
  DBIL: 0.002 mg/dL
  GLC: 203.6 mg/dL
  IP: 6.5 mg/dL
  K: 3.7 meq/L
  LDH: 284.8 IU/L
  Na: 141.8 meq/L
  PL: 139.4 mg/dL
  RALB: 2.9 g/dL
  TBIL: 0 mg/dL
  TC: 62.4 mg/dL
  TG: 145.6 mg/dL
  TP: 5.8 g/dL
  gamma-GTP: 1 IU/L

Source: ChEMBL document CHEMBL3885861, “Open TG-GATES”
